According to patent publication US10065963B2 (Incyte Corporation, priority 2015, dated 2018):
Counter-ions that a name gives are not always drawn.

Columns and labels:
[1] = target: PI3Kγ (p110γ) Recombinant Human Protein (Homo sapiens (Human), UniProt P48736); experiment: PI3K-γ scintillation proximity assay; assay type: biochemical; details: 2 μM ATP, 20 μM PIP2
[2] = target: PI3Kδ (p110δ/p85α) Recombinant Human Protein (Homo sapiens (Human), UniProt O00329); experiment: PI3Kδ scintillation proximity assay; assay type: biochemical
PI3Kδ (p110δ/p85α) Recombinant Human Protein, sequence (O00329 whole entry): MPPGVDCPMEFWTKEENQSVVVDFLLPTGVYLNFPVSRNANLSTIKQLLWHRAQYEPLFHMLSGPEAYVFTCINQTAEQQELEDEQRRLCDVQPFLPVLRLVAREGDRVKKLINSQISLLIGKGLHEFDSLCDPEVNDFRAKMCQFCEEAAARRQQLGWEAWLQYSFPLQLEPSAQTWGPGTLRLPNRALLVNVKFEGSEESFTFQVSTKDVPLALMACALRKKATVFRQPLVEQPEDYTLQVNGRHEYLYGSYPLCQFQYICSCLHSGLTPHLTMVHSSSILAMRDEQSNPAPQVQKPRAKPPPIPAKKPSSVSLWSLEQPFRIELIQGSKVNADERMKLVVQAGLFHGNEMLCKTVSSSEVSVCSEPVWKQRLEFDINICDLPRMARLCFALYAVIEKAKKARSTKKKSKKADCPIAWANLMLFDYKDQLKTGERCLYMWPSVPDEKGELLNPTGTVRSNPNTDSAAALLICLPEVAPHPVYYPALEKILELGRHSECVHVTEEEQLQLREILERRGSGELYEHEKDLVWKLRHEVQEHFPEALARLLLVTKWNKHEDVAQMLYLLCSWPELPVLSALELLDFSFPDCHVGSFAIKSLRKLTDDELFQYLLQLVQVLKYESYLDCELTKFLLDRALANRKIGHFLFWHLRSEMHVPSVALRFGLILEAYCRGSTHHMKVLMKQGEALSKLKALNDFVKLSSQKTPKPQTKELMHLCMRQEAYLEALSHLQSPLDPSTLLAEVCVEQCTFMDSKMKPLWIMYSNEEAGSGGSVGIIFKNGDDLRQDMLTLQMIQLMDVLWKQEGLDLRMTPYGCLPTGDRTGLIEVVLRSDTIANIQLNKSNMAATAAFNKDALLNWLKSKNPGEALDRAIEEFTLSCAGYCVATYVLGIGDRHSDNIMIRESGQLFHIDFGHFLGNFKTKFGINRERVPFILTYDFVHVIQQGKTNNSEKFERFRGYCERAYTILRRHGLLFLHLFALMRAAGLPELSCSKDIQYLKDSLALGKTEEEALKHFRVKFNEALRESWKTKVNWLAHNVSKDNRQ
PI3Kδ (p110δ/p85α) Recombinant Human Protein, sequence (P27986 whole entry partner): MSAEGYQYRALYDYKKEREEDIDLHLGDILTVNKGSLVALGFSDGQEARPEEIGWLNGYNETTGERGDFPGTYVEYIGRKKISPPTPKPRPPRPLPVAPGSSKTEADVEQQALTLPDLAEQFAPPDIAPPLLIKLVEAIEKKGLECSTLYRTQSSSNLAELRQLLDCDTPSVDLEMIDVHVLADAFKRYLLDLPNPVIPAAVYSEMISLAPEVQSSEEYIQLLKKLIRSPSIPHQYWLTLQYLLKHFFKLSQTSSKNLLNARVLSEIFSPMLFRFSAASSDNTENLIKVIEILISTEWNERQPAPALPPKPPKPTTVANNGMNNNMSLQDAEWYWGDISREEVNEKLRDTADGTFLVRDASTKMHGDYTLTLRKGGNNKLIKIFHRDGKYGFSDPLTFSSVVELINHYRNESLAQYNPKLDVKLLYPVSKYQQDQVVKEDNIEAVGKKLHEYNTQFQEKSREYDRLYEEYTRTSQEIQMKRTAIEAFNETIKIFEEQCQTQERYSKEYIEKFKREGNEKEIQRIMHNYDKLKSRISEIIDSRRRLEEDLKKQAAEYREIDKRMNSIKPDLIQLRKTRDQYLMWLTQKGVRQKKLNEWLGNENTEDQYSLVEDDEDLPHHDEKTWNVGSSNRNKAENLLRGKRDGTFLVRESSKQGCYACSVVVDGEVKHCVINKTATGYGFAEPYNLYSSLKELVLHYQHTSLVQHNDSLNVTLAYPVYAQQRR

PI3Kγ (p110γ) Recombinant Human Protein, sequence (P48736 whole entry): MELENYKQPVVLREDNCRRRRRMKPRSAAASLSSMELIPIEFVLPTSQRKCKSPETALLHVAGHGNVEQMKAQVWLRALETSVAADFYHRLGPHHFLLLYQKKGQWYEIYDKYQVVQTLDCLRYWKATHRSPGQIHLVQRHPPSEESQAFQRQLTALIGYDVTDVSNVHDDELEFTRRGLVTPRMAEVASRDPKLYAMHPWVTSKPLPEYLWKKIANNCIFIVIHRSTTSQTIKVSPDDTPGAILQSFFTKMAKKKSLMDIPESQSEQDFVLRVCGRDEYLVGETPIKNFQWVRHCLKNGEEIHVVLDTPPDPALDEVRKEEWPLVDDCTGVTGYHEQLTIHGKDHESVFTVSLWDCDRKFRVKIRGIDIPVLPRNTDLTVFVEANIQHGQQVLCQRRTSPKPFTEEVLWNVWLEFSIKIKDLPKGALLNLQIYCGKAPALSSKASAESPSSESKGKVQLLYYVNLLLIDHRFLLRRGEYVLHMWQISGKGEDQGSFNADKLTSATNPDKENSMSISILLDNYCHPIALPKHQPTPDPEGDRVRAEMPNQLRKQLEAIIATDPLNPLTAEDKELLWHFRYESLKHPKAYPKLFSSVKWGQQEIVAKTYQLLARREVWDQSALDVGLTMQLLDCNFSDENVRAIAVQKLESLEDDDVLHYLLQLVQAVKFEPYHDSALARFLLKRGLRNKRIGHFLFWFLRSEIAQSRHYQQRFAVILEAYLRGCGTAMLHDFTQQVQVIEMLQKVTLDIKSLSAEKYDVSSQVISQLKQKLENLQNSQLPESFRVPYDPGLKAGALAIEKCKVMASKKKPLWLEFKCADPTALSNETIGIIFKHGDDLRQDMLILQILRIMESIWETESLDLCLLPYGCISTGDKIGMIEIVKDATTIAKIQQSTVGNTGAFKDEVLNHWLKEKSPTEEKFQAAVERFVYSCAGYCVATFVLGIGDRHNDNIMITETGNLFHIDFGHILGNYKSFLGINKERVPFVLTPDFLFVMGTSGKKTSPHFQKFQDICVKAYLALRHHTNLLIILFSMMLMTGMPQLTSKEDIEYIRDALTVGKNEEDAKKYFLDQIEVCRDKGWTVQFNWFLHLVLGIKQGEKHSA

SMILES	IC50 [1]	IC50 ([2]; 2 μM ATP, 20 μM PIP2)	IC50 ([2]; Table B, Assay C)
CCOc1c(C(C)NC(=O)c2c(N)nn3cccnc23)cc(Cl)c2cn(C(C)C)nc12 (stereo not drawn) [Example 11a, 2-amino-N-(1-(4-chloro-7-ethoxy-2-isopropyl-2H-indazol-6-yl)ethyl)pyrazolo[1,5-a]pyrimidine-3-carboxamide trifluoroacetate]	< 2000 nM	≥ 2000 nM	
CCc1n[nH]c2c(-c3ccccc3)c(C(C)NC(=O)c3c(N)nn4cccnc34)cc(Cl)c12 (stereo not drawn) [Example 51, 2-Amino-N-(1-(4-chloro-3-ethyl-7-phenyl-1H-indazol-6-yl)ethyl)pyrazolo[1,5-a]pyrimidine-3-carboxamide trifluoroacetate]	< 2000 nM	≥ 2000 nM	
CC(NC(=O)c1c(N)nn2cccnc12)c1cc(Cl)c2cncn2c1N1CCCC(F)C1 (stereo not drawn) [Example 73C-73D, 2-Amino-N-{1-[8-chloro-5-(3-fluoropiperidin-1-yl)imidazo[1,5-a]pyridin-6-yl]ethyl}pyrazolo[1,5-a]pyrimidine-3-carboxamide]	< 500 nM	≥ 2000 nM	
C[C@H](NC(=O)c1c(N)nn2cccnc12)c1cc(Cl)c2c(Cl)ncn2c1N1CCNS(=O)(=O)CC1 [Example 160, 2-Amino-N-{(1S)-1-[1,8-dichloro-5-(1,1-dioxido-1,2,5-thiadiazepan-5-yl)imidazo[1,5-a]pyridin-6-yl]ethyl}pyrazolo[1,5-a]pyrimidine-3-carboxamide trifluoroacetate salt]	< 100 nM	< 100 nM	
CCOc1c(C(C)NC(=O)c2c(N)nn3cccnc23)cc(Cl)c2cn(CCOC)nc12 (stereo not drawn) [Example 5a, 2-amino-N-(1-(4-chloro-7-ethoxy-2-(2-methoxyethyl)-2H-indazol-6-yl)ethyl)pyrazolo[1,5-a]pyrimidine-3-carboxamide trifluoroacetate]	< 2000 nM	< 2000 nM	
CC(NC(=O)c1c(N)nn2cccnc12)c1cc(C2CC2)c2cncn2c1-c1ccccc1 (racemic) [Example 117, 2-Amino-N-[1-(8-cyclopropyl-5-phenylimidazo[1,5-a]pyridin-6-yl)ethyl]pyrazolo[1,5-a]pyrimidine-3-carboxamide trifluoroacetate salt]	< 500 nM	< 2000 nM	
CCOc1c(C(C)n2nc(C)c3c(N)ncnc32)cc(C)c(C#N)c1-c1ccc(C(=O)N(C)C)nc1 (stereo not drawn) [Example 31, 5-{3-[1-(4-amino-3-methyl-1H-pyrazolo[3,4-d]pyrimidin-1-yl)ethyl]-6-cyano-2-ethoxy-5-methylphenyl}-N,N-dimethylpyridine-2-carboxamide, reference compound]			< 50 nM
CC(NC(=O)c1c(N)nn2cccnc12)c1cc(Cl)c2c(C(F)(F)F)ncn2c1N1CCNS(=O)(=O)CC1 (racemic) [Example 159, 2-Amino-N-{1-[8-chloro-5-(1,1-dioxido-1,2,5-thiadiazepan-5-yl)-1-(trifluoromethyl)imidazo[1,5-a]pyridin-6-yl]ethyl}pyrazolo[1,5-a]pyrimidine-3-carboxamide trifluoroacetate salt]	< 500 nM	< 2000 nM	
CCOc1c(C(C)NC(=O)c2c(N)nn3cccnc23)cc(Cl)c2cn(CCO)nc12 (stereo not drawn) [Example 6a, 2-amino-N-(1-(4-chloro-7-ethoxy-2-(2-hydroxyethyl)-2H-indazol-6-yl)ethyl)pyrazolo[1,5-a]pyrimidine-3-carboxamide trifluoroacetate]	< 2000 nM	< 2000 nM	
CCOc1c(C(C)NC(=O)c2c(N)nn3cccnc23)cc(Cl)c2cn(CC(C)C)nc12 (stereo not drawn) [Example 9a, 2-amino-N-(1-(4-chloro-7-ethoxy-2-isobutyl-2H-indazol-6-yl)ethyl)pyrazolo[1,5-a]pyrimidine-3-carboxamide trifluoroacetate]	< 2000 nM	≥ 2000 nM	
CCOc1c(C(C)n2nc(C)c3c(N)ncnc32)cc(Cl)c(F)c1C1CNC(=O)C1 (single isomer, unassigned) [Example 32b, 4-{3-[1-(4-amino-3-methyl-1H-pyrazolo[3,4-d]pyrimidin-1-yl)ethyl]-5-chloro-2-ethoxy-6-fluorophenyl}pyrrolidin-2-one, reference compound]			< 50 nM
CC(NC(=O)c1c(N)nn2cccnc12)c1cc(Cl)c2cn[nH]c2c1C1=CCNCC1 (stereo not drawn) [Example 99, 2-Amino-N-{1-[4-chloro-7-(1,2,3,6-tetrahydropyridin-4-yl)-2H-indazol-6-yl]ethyl}pyrazolo[1,5-a]pyrimidine-3-carboxamide bis(trifluoroacetate)]	< 500 nM	< 100 nM	
CC(NC(=O)c1c(N)nn2cccnc12)c1cc(Cl)c2cn[nH]c2c1C1=CCN(C(=O)OCc2ccccc2)CC1 (stereo not drawn) [Example 98, Benzyl 4-[6-(1-{[(2-aminopyrazolo[1,5-a]pyrimidin-3-yl)carbonyl]amino}ethyl)-4-chloro-2H-indazol-7-yl]-3,6-dihydropyridine-1(2H)-carboxylate bis(trifluoroacetate)]	< 500 nM	< 2000 nM	
CCOc1c(C(C)NC(=O)c2c(N)nn3cccnc23)cc(Cl)c2cn(Cc3ccccc3)nc12 (stereo not drawn) [Example 8a, 2-amino-N-(1-(2-benzyl-4-chloro-7-ethoxy-2H-indazol-6-yl)ethyl)pyrazolo[1,5-a]pyrimidine-3-carboxamide trifluoroacetate]	< 2000 nM	≥ 2000 nM	
CCOc1c(C(C)NC(=O)c2c(N)nc3ccc(C)nn23)cc(Cl)c2cn[nH]c12 (stereo not drawn) [Example 46, 2-Amino-N-(1-(4-chloro-7-ethoxy-1H-indazol-6-yl)ethyl)-6-methylimidazo[1,2-b]pyridazine-3-carboxamide]	< 500 nM	< 500 nM	
CCOc1c(C(C)n2nc(C)c3c(N)ncnc32)cc(Cl)c(F)c1C1CNC(=O)C1 (single isomer, unassigned) [Example 32a, 4-{3-[1-(4-amino-3-methyl-1H-pyrazolo[3,4-d]pyrimidin-1-yl)ethyl]-5-chloro-2-ethoxy-6-fluorophenyl}pyrrolidin-2-one, reference compound]			50 to 200 nM
CCOc1c(C(C)n2nc(C)c3c(N)ncnc32)cc(Cl)c(F)c1C1CNC(=O)C1 (single isomer, unassigned) [Example 32c, 4-{3-[1-(4-amino-3-methyl-1H-pyrazolo[3,4-d]pyrimidin-1-yl)ethyl]-5-chloro-2-ethoxy-6-fluorophenyl}pyrrolidin-2-one, reference compound]			< 50 nM
CCOc1c(C(C)n2nc(C)c3c(N)ncnc32)cc(Cl)c(F)c1C1CNC(=O)C1 (single isomer, unassigned) [Example 32d, 4-{3-[1-(4-amino-3-methyl-1H-pyrazolo[3,4-d]pyrimidin-1-yl)ethyl]-5-chloro-2-ethoxy-6-fluorophenyl}pyrrolidin-2-one, reference compound]			50 to 200 nM
COc1c(C(C)n2nc(C)c3c(N)ncnc32)cc(Cl)c(C#N)c1C1CN(C[C@H](C)O)C1 (stereo partly drawn) [Example 29, 4-[1-(4-amino-3-methyl-1H-pyrazolo[3,4-d]pyrimidin-1-yl)ethyl]-6-chloro-2-{1-[(2S)-2-hydroxypropyl]azetidin-3-yl}-3-methoxybenzonitrile]			< 50 nM
COc1c(C(C)n2nc(C)c3c(N)ncnc32)cc(Cl)c(C#N)c1C1CN(CCO)C1 (stereo not drawn) [Example 30, 4-[1-(4-amino-3-methyl-1H-pyrazolo[3,4-d]pyrimidin-1-yl)ethyl]-6-chloro-2-[1-(2-hydroxyethyl)azetidin-3-yl]-3-methoxybenzonitrile]			< 50 nM
